# According to ChEMBL document CHEMBL5505986, “Design, synthesis and biological evaluation of thiazolyl-halogenated pyrroles or pyrazoles as novel antibacterial and antibiofilm agents” (Eur J Med Chem, 2024):
# The source made the active and inactive calls. No cut-off for these calls is given here.
# What was measured:
# Enterococcus faecium [1] = assay: Antibacterial activity against clinical isolate Enterococcus faecium assessed as reduction in bacterial growth incubated for 24 hrs by broth microdilution method; assay type: functional
# Streptococcus pyogenes [2] = assay: Antibacterial activity against Streptococcus pyogenes ATCC 12204 assessed as reduction in bacterial growth incubated for 24 hrs by broth microdilution method; assay type: functional
# Staphylococcus aureus [3] = assay: Antibacterial activity against vancomycin-intermediate resistant Staphylococcus aureus ATCC 700699/Mu50 assessed as reduction in bacterial growth incubated for 24 hrs by broth microdilution method; assay type: functional
# [4] = Metabolic stability in dog liver microsomes assessed as metabolic bioavailability at 0.1 uM preincubated for 10 mins followed by NADPH addition and measured upto 60 mins by LC-MS/MS analysis; assay type: ADME, Canis lupus familiaris, Microsome; conditions: time < 70 min
# Streptococcus pyogenes [5] = assay: Antibacterial activity against Streptococcus pyogenes infected in Galleria mellonella larvae infection model assessed as prolongation of median survival time at 1 mg/kg pre-infected with bacteria for 1 hr followed by compound addition measured every 12 hrs for 3 days (reference value: 24 hrs); assay type: functional; conditions: time 3 day
# [6] = Toxicity in Galleria mellonella larvae assessed as reduction in animal survival at 20 mg/kg; assay type: organism-based; conditions: in vivo, 80 h
# [7] = Metabolic stability in mouse liver microsomes assessed as metabolic bioavailability at 0.1 uM preincubated for 10 mins followed by NADPH addition and measured upto 60 mins by LC-MS/MS analysis; assay type: ADME, Microsome; conditions: time < 70 min
# Enterococcus faecium [8] = assay: Antibacterial activity against Enterococcus faecium Efm-HS0649 assessed as reduction in bacterial growth incubated for 24 hrs by broth microdilution method; assay type: functional
# [9] = Metabolic stability in rat liver microsomes assessed as metabolic bioavailability at 0.1 uM preincubated for 10 mins followed by NADPH addition and measured upto 60 mins by LC-MS/MS analysis; assay type: ADME, Microsome; conditions: time < 70 min
# Staphylococcus aureus [10] = assay: Antibacterial activity against community associated methicillin-resistant Staphylococcus aureus USA300 assessed as reduction in bacterial growth incubated for 24 hrs by broth microdilution method; assay type: functional
# Pseudomonas aeruginosa [11] = assay: Antibiofilm activity against Pseudomonas aeruginosa ATCC 47085 at sub-MIC doses measured after 24 hrs by crystal violet staining based analysis; assay type: functional
# Staphylococcus aureus [12] = assay: Antibiofilm activity against vancomycin-intermediate resistant Staphylococcus aureus ATCC 700699/Mu50 at 1/8 time MIC measured after 24 hrs by crystal violet staining based analysis; assay type: functional, organism-based
# Staphylococcus aureus [13] = assay: Antibiofilm activity against vancomycin-intermediate resistant Staphylococcus aureus ATCC 700699/Mu50 at sub-MIC doses measured after 24 hrs by crystal violet staining based analysis; assay type: functional
# [14] = Metabolic stability in human liver microsomes assessed as metabolic bioavailability at 0.1 uM preincubated for 10 mins followed by NADPH addition and measured upto 60 mins by LC-MS/MS analysis; assay type: ADME, Microsome; conditions: time < 70 min
# NCI-H1299 = assay: Cytotoxicity against human NCI-H1299 cells measured after 72 hrs by SRB assay; assay type: functional, cell-based; conditions: NCI-H1299, 72 h
# [15] = Metabolic stability in monkey liver microsomes assessed as metabolic bioavailability at 0.1 uM preincubated for 10 mins followed by NADPH addition and measured upto 60 mins by LC-MS/MS analysis; assay type: ADME, Macaca mulatta, Microsome; conditions: rhesus monkey, time < 70 min
# Enterococcus faecium [16] = assay: Antibacterial activity against Enterococcus faecium Efm-HS06188 assessed as reduction in bacterial growth incubated for 24 hrs by broth microdilution method; assay type: functional
# Staphylococcus aureus [17] = assay: Antibacterial activity against community associated methicillin-resistant Staphylococcus aureus USA400 assessed as reduction in bacterial growth incubated for 24 hrs by broth microdilution method; assay type: functional
# Pseudomonas aeruginosa [18] = assay: Antibiofilm activity against Pseudomonas aeruginosa ATCC 47085 at 8 to 16 ug/ml measured after 24 hrs by crystal violet staining based analysis; assay type: functional, organism-based; conditions: dose 8-16 µg/ml
# Enterococcus faecium [19] = assay: Antibacterial activity against glycopeptide-resistant Enterococcus faecium vanB type assessed as reduction in bacterial growth incubated for 24 hrs by broth microdilution method; assay type: functional
# Streptococcus pyogenes [20] = assay: Antibacterial activity against Streptococcus pyogenes infected in Galleria mellonella larvae infection model assessed as increase in number of surviving larvae at 1 mg/kg pre-infected with bacteria for 1 hr followed by compound addition measured every 12 hrs for 3 days; assay type: functional, organism-based; conditions: time 3.0 day
# Klebsiella pneumoniae = assay: Antibacterial activity against Klebsiella pneumoniae ATCC 13883 assessed as reduction in bacterial growth incubated for 24 hrs by broth microdilution method; assay type: functional
# Pseudomonas aeruginosa [21] = assay: Antibacterial activity against Pseudomonas aeruginosa ATCC 47085 assessed as reduction in bacterial growth incubated for 24 hrs by broth microdilution method; assay type: functional
# Enterococcus faecium [22] = assay: Antibiofilm activity against Enterococcus faecium clinical isolate at sub-MIC doses measured after 24 hrs by crystal violet staining based analysis; assay type: functional
# Acinetobacter baumannii = assay: Antibacterial activity against Acinetobacter baumannii ATCC 19606 assessed as reduction in bacterial growth incubated for 24 hrs by broth microdilution method; assay type: functional
# NCI-H1975 = assay: Cytotoxicity against human NCI-H1975 cells measured after 72 hrs by SRB assay; assay type: functional, cell-based; conditions: NCI-H1975, 72 h
# [23] = Toxicity in Galleria mellonella larvae assessed as reduction in animal survival […]; assay type: organism-based; conditions: in vivo, 80 h
# Enterococcus faecium [24] = assay: Antibiofilm activity against Enterococcus faecium clinical isolate at 1/8 times MIC measured after 24 hrs by crystal violet staining based analysis; assay type: functional, organism-based
compound,measurement,setting,value
Oc1c(F)cc(F)cc1-c1csc(-c2[nH]c(Br)c(Br)c2Br)n1,MIC,Enterococcus faecium [1],> 256 µg/mL
same,MIC,Streptococcus pyogenes [2],> 256 µg/mL
same,MIC,Staphylococcus aureus [3],> 256 µg/mL
Oc1c(Br)cc(C(F)(F)F)cc1-c1csc(-c2[nH]c(Br)c(Br)c2Br)n1,"Fh at 1 h, 0.1 µM",[4],18.4%
same,MST,Streptococcus pyogenes [5],36 h
same,Activity,[6],Non-Toxic
same,MIC,Enterococcus faecium [1],≤ 0.125 µg/mL
same,"Fh at 1 h, 0.1 µM",[7],43.3%
same,MIC,Enterococcus faecium [8],≤ 0.125 µg/mL
same,"Fh at 1 h, 0.1 µM",[9],65.7%
same,MIC,Staphylococcus aureus [10],16 µg/mL
same,Activity,Pseudomonas aeruginosa [11],>60%
same,Activity,Staphylococcus aureus [12],Active
same,Activity,Staphylococcus aureus [13],>60%
same,"Fh at 1 h, 0.1 µM",[14],2.26%
same,IC50,NCI-H1299,8.25 µg/mL
same,"Fh at 1 h, 0.1 µM",[15],36.9%
same,MIC,Enterococcus faecium [16],≤ 0.125 µg/mL
same,MIC,Staphylococcus aureus [17],16 µg/mL
same,Activity,Pseudomonas aeruginosa [18],Active
same,MIC,Enterococcus faecium [19],0.5 µg/mL
same,MIC,Streptococcus pyogenes [2],≤ 0.125 µg/mL
same,Activity,Streptococcus pyogenes [20],Active
same,MIC,Klebsiella pneumoniae,> 256 µg/mL
same,MIC,Pseudomonas aeruginosa [21],> 256 µg/mL
same,MIC,Staphylococcus aureus [3],2 µg/mL
same,Activity,Enterococcus faecium [22],>60%
same,MIC,Acinetobacter baumannii,> 256 µg/mL
same,IC50,NCI-H1975,4.4 µg/mL
Oc1ccc(C(F)(F)F)cc1-c1csc(-c2cc(Cl)c(Cl)[nH]2)n1,MIC,Enterococcus faecium [1],> 256 µg/mL
same,MIC,Streptococcus pyogenes [2],4 µg/mL
same,MIC,Staphylococcus aureus [3],4 µg/mL
Cc1cc(Cl)c(O)c(-c2csc(-c3cc(Cl)c(Cl)[nH]3)n2)c1,MIC,Enterococcus faecium [1],> 256 µg/mL
same,MIC,Streptococcus pyogenes [2],> 256 µg/mL
same,MIC,Staphylococcus aureus [3],> 256 µg/mL
Oc1c(Br)cc(C(F)(F)F)cc1-c1csc(-c2cc(Br)c(Br)[nH]2)n1,MIC,Enterococcus faecium [1],2 µg/mL
same,MIC,Streptococcus pyogenes [2],0.5 µg/mL
same,MIC,Staphylococcus aureus [3],1 µg/mL
O=C(c1cc(Cl)c(Cl)[nH]1)c1cc(Cl)cc(Cl)c1O,MIC,Enterococcus faecium [1],0.5 µg/mL
same,IC50,NCI-H1299,0.82 µg/mL
same,Activity,[23],Toxic
same,MIC,Streptococcus pyogenes [2],≤ 0.125 µg/mL
same,MIC,Staphylococcus aureus [3],≤ 0.125 µg/mL
same,IC50,NCI-H1975,0.59 µg/mL
FC(F)(F)c1cc(Br)cc(-c2csc(-c3[nH]c(Br)c(Br)c3Br)n2)c1,MIC,Enterococcus faecium [1],32 µg/mL
same,MIC,Streptococcus pyogenes [2],16 µg/mL
same,MIC,Staphylococcus aureus [3],16 µg/mL
Oc1c(Cl)cc(Cl)cc1-c1csc(-c2[nH]c(Br)c(Br)c2Br)n1,MIC,Enterococcus faecium [1],0.5 µg/mL
same,MIC,Streptococcus pyogenes [2],0.25 µg/mL
same,MIC,Klebsiella pneumoniae,> 256 µg/mL
same,MIC,Pseudomonas aeruginosa [21],> 256 µg/mL
same,MIC,Staphylococcus aureus [3],> 256 µg/mL
same,MIC,Acinetobacter baumannii,> 256 µg/mL
O=[N+]([O-])c1cc(-c2nc(-c3cc(Br)cc(Br)c3O)cs2)[nH]n1,MIC,Enterococcus faecium [1],16 µg/mL
same,Activity,Enterococcus faecium [24],Active
same,Activity,Pseudomonas aeruginosa [11],>60%
same,Activity,Staphylococcus aureus [12],Active
same,Activity,Staphylococcus aureus [13],>60%
same,Activity,Pseudomonas aeruginosa [18],Active
same,MIC,Streptococcus pyogenes [2],2 µg/mL
same,MIC,Klebsiella pneumoniae,> 256 µg/mL
same,MIC,Pseudomonas aeruginosa [21],> 256 µg/mL
same,MIC,Staphylococcus aureus [3],8 µg/mL
same,Activity,Enterococcus faecium [22],>60%
same,MIC,Acinetobacter baumannii,> 256 µg/mL
Oc1c(F)cc(F)cc1-c1csc(-c2cc(Cl)c(Cl)[nH]2)n1,MIC,Enterococcus faecium [1],> 256 µg/mL
same,MIC,Streptococcus pyogenes [2],> 256 µg/mL
same,MIC,Staphylococcus aureus [3],> 256 µg/mL
Oc1c(Br)cc(C(F)(F)F)cc1-c1csc(-c2cc(C(F)(F)F)n[nH]2)n1,MIC,Enterococcus faecium [1],8 µg/mL
same,MIC,Streptococcus pyogenes [2],16 µg/mL
same,MIC,Staphylococcus aureus [3],8 µg/mL
COc1c(Cl)cc(Cl)cc1-c1csc(-c2[nH]c(Br)c(Br)c2Br)n1,MIC,Enterococcus faecium [1],> 256 µg/mL
same,MIC,Streptococcus pyogenes [2],> 256 µg/mL
same,MIC,Staphylococcus aureus [3],> 256 µg/mL
COc1ccc(O)c(-c2csc(-c3cc(Cl)c(Cl)[nH]3)n2)c1,MIC,Enterococcus faecium [1],> 256 µg/mL
same,MIC,Streptococcus pyogenes [2],> 256 µg/mL
same,MIC,Staphylococcus aureus [3],> 256 µg/mL
